Several values for one entry are separate records, joined by “and”; a condition that tells them apart may be missing. Equal values may be shown once. Toxic doses and inconclusive results are not listed.
Test system: BDF1 mice, P388 leukemia ip, median survival T/C
Assay: NCI In Vivo Anticancer Drug Screen. Data for tumor model P388 Leukemia (intraperitoneal) in B6D2F1 (BDF1) mice
Conditions: endpoint: median survival time, higher = longer survival
Outline: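 Vehicle-dosed animals serve as the reference; survival of compound-dosed, tumour-implanted mice is divided by it.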

[1] = dose: 50.0 mg/kg/injection, schedule: Q01DX009 (ip), vehicle: saline with Tween-80
[2] = dose: 100.0 mg/kg/injection, schedule: Q01DX009 (ip), vehicle: saline with Tween-80
[3] = dose: 200.0 mg/kg/injection, schedule: Q01DX009 (ip), vehicle: saline with Tween-80
[4] = dose: 50.0 mg/kg/injection, schedule: Q04DX003 (ip), vehicle: saline with Tween-80
[5] = dose: 100.0 mg/kg/injection, schedule: Q04DX003 (ip), vehicle: saline with Tween-80
[6] = dose: 25.0 mg/kg/injection, schedule: Q01DX009 (ip), vehicle: water
[7] = dose: 50.0 mg/kg/injection, schedule: Q04DX003 (ip), vehicle: water
[8] = dose: 100.0 mg/kg/injection, schedule: Q04DX003 (ip), vehicle: water
[9] = dose: 200.0 mg/kg/injection, schedule: Q04DX003 (ip), vehicle: water
[10] = dose: 400.0 mg/kg/injection, schedule: Q04DX003 (ip), vehicle: water
[11] = dose: 12.5 mg/kg/injection, schedule: Q01DX009 (ip), vehicle: water
[12] = dose: 25.0 mg/kg/injection, schedule: Q01DX009 (ip), vehicle: saline with Tween-80
[13] = dose: 200.0 mg/kg/injection, schedule: Q04DX003 (ip), vehicle: saline with Tween-80
[14] = dose: 400.0 mg/kg/injection, schedule: Q04DX003 (ip), vehicle: saline with Tween-80
[15] = dose: 100.0 mg/kg/injection, schedule: Q04DX003 (ip), vehicle: Klucel (hydroxypropylcellulose) (HPC)
[16] = dose: 200.0 mg/kg/injection, schedule: Q04DX003 (ip), vehicle: Klucel (hydroxypropylcellulose) (HPC)

For `C[CH2][Pb]([CH2]C)([CH2]C)[O]C(=O)COC`, the T/C (dose: 0.78 mg/kg/injection, schedule: Q01DX009 (ip), vehicle: Klucel (hydroxypropylcellulose) (HPC)) was 115 % of control, the T/C (dose: 1.56 mg/kg/injection, schedule: Q01DX009 (ip), vehicle: Klucel (hydroxypropylcellulose) (HPC)) was 98 % of control and the T/C (dose: 3.13 mg/kg/injection, schedule: Q01DX009 (ip), vehicle: Klucel (hydroxypropylcellulose) (HPC)) was 121 % of control.
In the case of `CCOC1OCN(c2ccc(OC)cc2)CC1(C)C` (centres undefined), the T/C [1] is reported as 98 % of control and 100 % of control, the T/C [2] is reported as 113 % of control and 114 % of control and the T/C [3] is reported as 116 % of control and 124 % of control.
`O=C(CBr)c1ccc(/C=C/c2ccc(Cl)cc2)cc1` was tested, and the T/C [1] was 95 % of control, the T/C [4] was 109 % of control and the T/C [2] was 120 % of control. The T/C [5] was 109 % of control.
For `O=C(c1ccccc1)N1CC1`, the T/C [6] was 101 % of control, the T/C (dose: 25.0 mg/kg/injection, schedule: Q04DX003 (ip), vehicle: water) was 115 % of control and the T/C [7] was 92 % of control. For the same compound, the T/C [8] was 100 % of control, the T/C [9] was 109 % of control and the T/C (dose: 400.0 mg/kg/injection, schedule: Q01DX009 (ip), vehicle: water) was 112 % of control. For the same compound, the T/C [10] was 115 % of control.
With `COc1ccc(C=O)cc1OCc1ccccc1` the T/C (dose: 6.25 mg/kg/injection, schedule: Q01DX009 (ip), vehicle: water) was 113 % of control, the T/C [11] was 104 % of control and the T/C [6] was 109 % of control. For the same compound, the T/C (dose: 50.0 mg/kg/injection, schedule: Q01DX009 (ip), vehicle: water) was 101 % of control and 116 % of control, the T/C [7] was 104 % of control and the T/C (dose: 100.0 mg/kg/injection, schedule: Q01DX009 (ip), vehicle: water) was 95 % of control and 97 % of control. The T/C [8] was 102 % of control and 117 % of control, the T/C (dose: 200.0 mg/kg/injection, schedule: Q01DX009 (ip), vehicle: water) was 116 % of control and the T/C [9] was 102 % of control and 114 % of control. The T/C [10] was 117 % of control.
With `Cc1c(O)c2c(c(O)c1Cc1ccc(CN)cc1)C(=O)c1ccccc1C2=O` the T/C [11] was 90 % of control and the T/C [6] was 114 % of control.
`CCC1CN2CCc3cc(OC)c(OC)cc3C2CC1C#N` (centres undefined) was tested, and the T/C (dose: 12.5 mg/kg/injection, schedule: Q01DX009 (ip), vehicle: saline with Tween-80) was 89 % of control, the T/C [12] was 89 % of control and the T/C [1] was 86 % of control.
With `COC(=O)c1c([N+](=O)[O-])cccc1[N+](=O)[O-]` the T/C (dose: 50.0 mg/kg/injection, schedule: Q01DX005 (ip), vehicle: saline with Tween-80) was 97 % of control, the T/C (dose: 100.0 mg/kg/injection, schedule: Q01DX005 (ip), vehicle: saline with Tween-80) was 97 % of control and the T/C (dose: 200.0 mg/kg/injection, schedule: Q01DX005 (ip), vehicle: saline with Tween-80) was 94 % of control.
For `CCOC(=O)C(C1=NC(C)(C)CC(C)O1)C(C[N+](=O)[O-])c1ccccc1` (centres undefined), the T/C (dose: 50.0 mg/kg/injection, schedule: Q01DX001 (ip), vehicle: saline sonified) was 100 % of control, the T/C (dose: 100.0 mg/kg/injection, schedule: Q01DX001 (ip), vehicle: saline sonified) was 100 % of control and the T/C (dose: 200.0 mg/kg/injection, schedule: Q01DX001 (ip), vehicle: saline sonified) was 100 % of control.
In the case of `C=C1C(=O)O[C@@H]2C[C@@H](C)[C@@H]3C=CC(=O)[C@@]3(C)[C@@H](O)[C@H]12`, the T/C (dose: 0.88 mg/kg/injection, schedule: Q01DX009 (ip), vehicle: saline) is reported as 109 % of control, the T/C (dose: 1.3 mg/kg/injection, schedule: Q01DX009 (ip), vehicle: saline) is reported as 113 % of control and the T/C (dose: 2.0 mg/kg/injection, schedule: Q01DX009 (ip), vehicle: saline + alcohol) is reported as 116 % of control. For the same compound, the T/C (dose: 4.0 mg/kg/injection, schedule: Q01DX010 (ip), vehicle: other) was 116 % of control, the T/C (dose: 5.0 mg/kg/injection, schedule: Q01DX009 (ip), vehicle: saline + alcohol) was 116 % of control and the T/C (dose: 5.0 mg/kg/injection, schedule: Q01DX009 (ip), vehicle: saline with Tween-80) was 109 % of control. The T/C (dose: 5.0 mg/kg/injection, schedule: Q01DX010 (ip), vehicle: other) was 112 % of control, the T/C (dose: 6.0 mg/kg/injection, schedule: Q01DX010 (ip), vehicle: other) was 116 % of control and the T/C (dose: 8.0 mg/kg/injection, schedule: Q01DX009 (ip), vehicle: alcohol) was 163 % of control. The T/C (dose: 8.0 mg/kg/injection, schedule: Q01DX009 (ip), vehicle: saline + alcohol) was 168 % of control and the T/C (dose: 8.0 mg/kg/injection, schedule: Q01DX010 (ip), vehicle: other) was 116 % of control.
`CCCCCCCC/C=C\CCCCCCCC(=O)OC` was tested, and the T/C [5] was 96 % of control, the T/C [3] was 120 % of control and the T/C [13] was 103 % of control. For the same compound, the T/C [14] was 88 % of control.
For `Oc1c(Cl)cc(Cl)cc1C=Nc1cc(C(F)(F)F)ccc1NCc1ccccc1`, the T/C [1] was 93 % of control, the T/C [2] was 89 % of control and the T/C [3] was 94 % of control.
`CC(SC(C)c1ccccc1)c1ccccc1` (centres undefined) was tested, and the T/C [5] was 108 % of control, the T/C [13] was 108 % of control and the T/C [14] was 116 % of control.
For `ClC(Cl)C(Cl)(Cl)C(Cl)(Cl)Cl`, the T/C (dose: 50.0 mg/kg/injection, schedule: Q01DX009 (ip), vehicle: Klucel (hydroxypropylcellulose) (HPC)) was 91 % of control, the T/C (dose: 50.0 mg/kg/injection, schedule: Q04DX003 (ip), vehicle: Klucel (hydroxypropylcellulose) (HPC)) was 104 % of control and the T/C (dose: 100.0 mg/kg/injection, schedule: Q01DX009 (ip), vehicle: Klucel (hydroxypropylcellulose) (HPC)) was 95 % of control. The T/C [15] was 109 % of control, the T/C (dose: 200.0 mg/kg/injection, schedule: Q01DX009 (ip), vehicle: Klucel (hydroxypropylcellulose) (HPC)) was 100 % of control and the T/C [16] was 109 % of control.
For `C=CN1CCCC1=O`, the T/C (dose: 100.0 mg/kg/injection, schedule: Q01DX001 (ip), vehicle: saline) was 100 % of control, the T/C (dose: 100.0 mg/kg/injection, schedule: Q01DX009 (ip), vehicle: saline) was 90 % of control and the T/C (dose: 200.0 mg/kg/injection, schedule: Q01DX001 (ip), vehicle: saline) was 95 % of control. The T/C (dose: 200.0 mg/kg/injection, schedule: Q01DX009 (ip), vehicle: saline) was 118 % of control, the T/C (dose: 400.0 mg/kg/injection, schedule: Q01DX001 (ip), vehicle: saline) was 100 % of control and the T/C (dose: 400.0 mg/kg/injection, schedule: Q01DX009 (ip), vehicle: saline) was 122 % of control.
For `CC(=O)Nc1c2sscc-2n(C)c1=O`, the T/C (dose: 0.39 mg/kg/injection, schedule: Q01DX009 (ip), vehicle: saline with Tween-80) was 97 % of control and the T/C (dose: 0.78 mg/kg/injection, schedule: Q01DX009 (ip), vehicle: saline with Tween-80) was 104 % of control.
`O=C(OC1c2ccccc2C2CC21)c1cc([N+](=O)[O-])cc([N+](=O)[O-])c1` (centres undefined) was tested, and the T/C [1] was 100 % of control, the T/C [2] was 104 % of control and the T/C [3] was 104 % of control.
With `O=C1C2C3CC4C2C(=O)C2C1C3C42` (centres undefined) the T/C (dose: 100.0 mg/kg/injection, schedule: Q04DX003 (ip), vehicle: saline) was 90 % of control, the T/C (dose: 200.0 mg/kg/injection, schedule: Q04DX003 (ip), vehicle: saline) was 102 % of control and the T/C (dose: 400.0 mg/kg/injection, schedule: Q04DX003 (ip), vehicle: saline) was 90 % of control.
`O=C(Nc1ccccc1)Nc1ccc([N+](=O)[O-])cc1` was tested, and the T/C [15] was 105 % of control, the T/C [16] was 110 % of control and the T/C (dose: 400.0 mg/kg/injection, schedule: Q04DX003 (ip), vehicle: Klucel (hydroxypropylcellulose) (HPC)) was 105 % of control.
With `Cc1c(C#N)c2nc(C(=O)c3ccc(Br)cc3)cc(-c3ccc(Br)cc3)n2c1C` the T/C [12] was 109 % of control, the T/C [1] was 104 % of control and the T/C [4] was 87 % of control. The T/C [2] was 104 % of control, the T/C [5] was 91 % of control and the T/C [3] was 109 % of control. The T/C [13] was 87 % of control and the T/C [14] was 87 % of control.
`Clc1nc(Cl)c(Cl)nc1Cl` was tested, and the T/C [12] was 100 % of control, the T/C (dose: 25.0 mg/kg/injection, schedule: Q04DX003 (ip), vehicle: saline with Tween-80) was 97 % of control and the T/C [1] was 97 % of control. The T/C [4] was 113 % of control, the T/C [2] was 113 % of control and the T/C [5] was 108 % of control. The T/C [3] was 113 % of control, the T/C [13] was 97 % of control and the T/C (dose: 400.0 mg/kg/injection, schedule: Q01DX009 (ip), vehicle: saline with Tween-80) was 106 % of control. The T/C [14] was 106 % of control.
`O=c1cn[nH]c(=O)[nH]1` was tested, and the T/C (dose: 62.5 mg/kg/injection, schedule: Q01DX010 (ip), vehicle: saline) was 100 % of control, the T/C (dose: 125.0 mg/kg/injection, schedule: Q01DX010 (ip), vehicle: saline) was 100 % of control and the T/C (dose: 250.0 mg/kg/injection, schedule: Q01DX010 (ip), vehicle: saline) was 100 % of control. For the same compound, the T/C (dose: 500.0 mg/kg/injection, schedule: Q01DX010 (ip), vehicle: saline) was 95 % of control.
